Paper PMC9958325 (Nature Communications, 2023)
Values joined by “and” are separate entries in the source; they are usually repeats but may differ in a detail not shown here. Equal values may be shown once. Read-outs that look alike come from different tables or passages of the source.

Columns and labels:
[1] = Pharmacokinetic study in PXB-mice (human liver-chimeric)
[2] = test system: SARS-CoV-2 TKYX00012/ο BA.1; experiment: microbe, parasite or virus in culture; format: cell-based
[3] = test system: SARS-CoV-2 TKYS02037/ο BA.2; experiment: microbe, parasite or virus in culture; format: cell-based
[4] = test system: SARS-CoV-2 TKYTS14631/ο BA.5; experiment: microbe, parasite or virus in culture; format: cell-based
[5] = test system: SARS-CoV-2^WK521 in HeLa-ACE2-TMPRSS2 cells; experiment: Antiviral assay, HeLa-ACE2-TMPRSS2 cells, WK521; format: cell-based
[6] = test system: SARS-CoV-2 UT-NCD1757-1N/ο BA.2.75; experiment: microbe, parasite or virus in culture; format: cell-based
[7] = test system: SARS-CoV-2^WK521 in A549-ACE2-TMPRSS2 cells; experiment: Antiviral assay, A549-ACE2-TMPRSS2 cells, WK521; format: cell-based

For CC(C)(C)[C@H](NC(=O)C(F)(F)F)C(=O)N1C[C@H]2[C@@H]([C@H]1C(=O)N[C@@H](C[C@@H]1CCNC1=O)C(=O)c1nc3c(F)cccc3s1)C2(C)C [TKB245], which Plasma concentration ([1]; PXB-mice, i.v. 10 mg/kg, 1440 min, individual mice, listed as TKB0245, 10 mg/kg) is on record?
The Plasma concentration was 13.6 ng/mL and 11.6 ng/mL and 12.4 ng/mL.

What about the Plasma concentration ([1]; PXB-mice, i.v. 10 mg/kg, 24 hr, individual mice) of the same molecule?
The Plasma concentration was 10 ng/mL.

And the Plasma concentration ([1]; PXB-mice, p.o. 10 mg/kg, 10 min, individual mice, listed as TKB0245, 10 mg/kg)?
The Plasma concentration was 914.5 ng/mL and 1553.1 ng/mL and 2872.3 ng/mL.

And the Plasma concentration ([1]; PXB-mice, p.o. 10 mg/kg, 0.17 hr, individual mice, listed as TKB0245, 10 mg/kg)?
Its Plasma concentration is 910 ng/mL and 1550 ng/mL and 2870 ng/mL.

And the Plasma concentration ([1]; PXB-mice, p.o. 10 mg/kg, 60 min, individual mice, listed as TKB0245, 10 mg/kg)?
Its Plasma concentration is 1278.1 ng/mL and 1343.7 ng/mL and 1794.3 ng/mL.

And the Plasma concentration ([1]; PXB-mice, p.o. 10 mg/kg, 1 hr, individual mice, listed as TKB0245, 10 mg/kg)?
Its Plasma concentration is 1280 ng/mL and 1340 ng/mL and 1790 ng/mL.

And the Plasma concentration ([1]; PXB-mice, p.o. 10 mg/kg, 240 min, individual mice, listed as TKB0245, 10 mg/kg)?
The Plasma concentration was 152.9 ng/mL and 98.8 ng/mL and 128.8 ng/mL.

And the Plasma concentration ([1]; PXB-mice, p.o. 10 mg/kg, 4 hr, individual mice, listed as TKB0245, 10 mg/kg)?
Its Plasma concentration is 150 ng/mL and 100 ng/mL and 130 ng/mL.

And the Plasma concentration ([1]; PXB-mice, p.o. 10 mg/kg, 480 min, individual mice, listed as TKB0245, 10 mg/kg)?
Its Plasma concentration is 41.6 ng/mL and 34.4 ng/mL and 32.8 ng/mL.

What about the Plasma concentration ([1]; PXB-mice, p.o. 10 mg/kg, 8 hr, individual mice, listed as TKB0245, 10 mg/kg) of the same molecule?
The Plasma concentration was 0.04 µg/ml and 0.03 µg/ml (2×).

And the Plasma concentration ([1]; PXB-mice, p.o. 10 mg/kg, 1440 min, individual mice, listed as TKB0245, 10 mg/kg)?
The Plasma concentration was 26 ng/mL and 21.9 ng/mL and 27.9 ng/mL.

And the Plasma concentration ([1]; PXB-mice, p.o. 10 mg/kg, 24 hr, individual mice, listed as TKB0245, 10 mg/kg)?
Its Plasma concentration is 0.03 µg/ml (2×) and 0.02 µg/ml.

What about the Plasma concentration ([1]; i.v., 10 min, individual animals (3 per time point), LC/MS/MS, listed as TKB0245) of the same molecule?
The Plasma concentration was 8436.54 ng/mL and 8433.45 ng/mL and 10625.21 ng/mL.

And the Plasma concentration ([1]; i.v., 60 min, individual animals (3 per time point), LC/MS/MS, listed as TKB0245)?
The Plasma concentration was 2816.02 ng/mL and 2507.33 ng/mL and 3228.12 ng/mL.

And the Plasma concentration ([1]; i.v., 240 min, individual animals (3 per time point), LC/MS/MS, listed as TKB0245)?
Its Plasma concentration is 47.02 ng/mL and 52.34 ng/mL and 93.04 ng/mL.

And the Plasma concentration ([1]; i.v., 480 min, individual animals (3 per time point), LC/MS/MS, listed as TKB0245)?
The Plasma concentration was 10.40 ng/mL and 14.76 ng/mL and 18.04 ng/mL.

And the Plasma concentration ([1]; i.v., 1440 min, individual animals (3 per time point), LC/MS/MS, listed as TKB0245)?
The Plasma concentration was 13.63 ng/mL and 11.63 ng/mL and 10.43 ng/mL.

What about the “Oral F” value ([1]; male PXB-mouse 10 mg/kg i.v. and p.o., dose-normalized AUC ratio, 10 mg/kg) of the same molecule?
Its value is 47.7% and 48% and 48¶ %.

And the Plasma concentration ([1]; p.o., 10 min, individual animals (3 per time point), LC/MS/MS, listed as TKB0245)?
Its Plasma concentration is 914.50 ng/mL and 1553.11 ng/mL and 2872.30 ng/mL.

What about the Plasma concentration ([1]; p.o., 60 min, individual animals (3 per time point), LC/MS/MS, listed as TKB0245) of the same molecule?
The Plasma concentration was 1278.12 ng/mL and 1343.67 ng/mL and 1794.27 ng/mL.

What about the Plasma concentration ([1]; p.o., 240 min, individual animals (3 per time point), LC/MS/MS, listed as TKB0245) of the same molecule?
The Plasma concentration was 152.94 ng/mL and 98.79 ng/mL and 128.84 ng/mL.

And the Plasma concentration ([1]; p.o., 480 min, individual animals (3 per time point), LC/MS/MS, listed as TKB0245)?
Its Plasma concentration is 41.61 ng/mL and 34.39 ng/mL and 32.81 ng/mL.

And the Plasma concentration ([1]; p.o., 1440 min, individual animals (3 per time point), LC/MS/MS, listed as TKB0245)?
Its Plasma concentration is 25.98 ng/mL and 21.91 ng/mL and 27.88 ng/mL.

And the EC50 ([2]; read-out: EC50 ο BA1, Average)?
Its EC50 is 13.7 nM.

What about the EC50 ([2]; read-out: EC50 ο BA1, individual assays) of the same molecule?
Its EC50 is 10 nM and 7 nM and 24.2 nM.

What about the EC50 ([3]; read-out: EC50 against TKYVS2037/ο BA.2) of the same molecule?
Its EC50 is 45 ± 14 nM.

What about the EC50 ([3]; read-out: EC50 ο BA2, Average) of the same molecule?
The EC50 was 45.3 nM.

And the EC50 ([3]; read-out: EC50 ο BA2, individual assays)?
The EC50 was 60 nM and 32 nM and 44 nM.

What about the EC50 ([4]; read-out: EC50 against TKYTS14631/ο BA.5) of the same molecule?
The EC50 was 19 ± 5 nM.

What about the EC50 ([4]; read-out: EC50 ο BA5, Average) of the same molecule?
Its EC50 is 18.8 nM.

What about the EC50 ([4]; read-out: EC50 ο BA5, individual assays) of the same molecule?
Its EC50 is 16.1 nM and 24.7 nM and 15.6 nM.

And the EC50 ([5]; SARS-CoV-2^WK521, read-out: EC50, HeLa-ACE2-TMPRSS2)?
The EC50 was 21 ± 8 nM.

What about the EC50 ([5]; source data, listed as TKB0245, read-out: EC50, HeLa-AEC2-TMPRSS2, individual assays) of the same molecule?
Its EC50 is 14 nM and 30 nM and 20 nM.

What about the EC50 ([5]; source data, read-out: EC50, HeLa-AEC2-TMPRSS2, Average) of the same molecule?
The EC50 was 21.3 nM.

What about the EC50 ([6]; read-out: EC50 against UT-NCD1757-1N/ο BA.2.75) of the same molecule?
Its EC50 is 49 ± 5 nM.

What about the EC50 ([6]; read-out: EC50 ο BA2.75, Average) of the same molecule?
The EC50 was 49.3 nM.

And the EC50 ([6]; read-out: EC50 ο BA2.75, individual assays)?
The EC50 was 55 nM and 44 nM.

And the EC50 ([7]; SARS-CoV-2^WK521, read-out: EC50, A549-ACE2-TMPRSS2)?
Its EC50 is 2.7 ± 0.2 nM.

What about the EC50 ([7]; source data, listed as TKB0245, read-out: EC50, A549-AEC2-TMPRSS2, individual assays) of the same molecule?
The EC50 was 3 nM and 2.47 nM and 2.78 nM.

And the EC50 ([7]; source data, read-out: EC50, A549-AEC2-TMPRSS2, Average)?
Its EC50 is 2.75 nM.
